Laboratory results published in patent US20110039890A1, “4-[2,3-Difluoro-6-(2-fluoro-4-methyl-phenylsulfanyl)-phenyl]-piperidine” (H. LUNDBECK A/S, priority 2007, published 2011).
pIC50, pKi: −log10 of the molar value.

How the values were obtained:
[1] = target: T1, [3H]-serotonin reuptake (SERT) (Rattus norvegicus, UniProt P31652); assay: inhibition of [3H]-serotonin reuptake in rat synaptosomes; format: biochemical
T1 construct: from tissue
From the text: (§1) IC50 (nM) values Compound I inhibition of the reuptake in rat synaptosomes:
(§2) [^3H]-serotonin: 2.4 [^3H]-noradrenaline: 12

[2] = target: T2, [3H]-noradrenaline reuptake (NAT) (Rattus norvegicus, UniProt Q63380); assay: inhibition of [3H]-noradrenaline reuptake in rat synaptosomes; format: biochemical
T2 construct: from tissue
T2 sequence (Q63380 1-617): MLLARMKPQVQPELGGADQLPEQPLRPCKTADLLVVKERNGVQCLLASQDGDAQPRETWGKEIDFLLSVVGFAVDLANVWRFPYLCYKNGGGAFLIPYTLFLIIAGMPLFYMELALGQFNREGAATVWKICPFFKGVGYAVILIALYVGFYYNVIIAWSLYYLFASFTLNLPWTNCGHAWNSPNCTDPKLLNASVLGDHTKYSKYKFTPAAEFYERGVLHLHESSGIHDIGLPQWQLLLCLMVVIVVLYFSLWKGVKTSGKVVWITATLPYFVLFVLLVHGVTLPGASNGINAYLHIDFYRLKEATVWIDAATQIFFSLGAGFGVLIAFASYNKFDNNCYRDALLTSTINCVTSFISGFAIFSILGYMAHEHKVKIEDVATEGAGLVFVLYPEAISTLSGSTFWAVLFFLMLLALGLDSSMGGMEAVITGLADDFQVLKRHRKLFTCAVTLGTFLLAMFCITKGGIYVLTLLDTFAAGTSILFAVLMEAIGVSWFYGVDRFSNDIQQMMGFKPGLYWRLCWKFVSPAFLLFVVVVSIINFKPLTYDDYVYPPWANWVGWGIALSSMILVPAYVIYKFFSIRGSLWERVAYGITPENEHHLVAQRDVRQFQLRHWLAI
From the text: as §1, §2

[3] = target: T3, 5-HT2A receptor (Homo sapiens, UniProt P28223); assay: affinity to human serotonin receptor 5-HT2A; format: binding; conditions: calculated from the Cheng-Prusoff equation
T3 sequence (P28223 whole entry): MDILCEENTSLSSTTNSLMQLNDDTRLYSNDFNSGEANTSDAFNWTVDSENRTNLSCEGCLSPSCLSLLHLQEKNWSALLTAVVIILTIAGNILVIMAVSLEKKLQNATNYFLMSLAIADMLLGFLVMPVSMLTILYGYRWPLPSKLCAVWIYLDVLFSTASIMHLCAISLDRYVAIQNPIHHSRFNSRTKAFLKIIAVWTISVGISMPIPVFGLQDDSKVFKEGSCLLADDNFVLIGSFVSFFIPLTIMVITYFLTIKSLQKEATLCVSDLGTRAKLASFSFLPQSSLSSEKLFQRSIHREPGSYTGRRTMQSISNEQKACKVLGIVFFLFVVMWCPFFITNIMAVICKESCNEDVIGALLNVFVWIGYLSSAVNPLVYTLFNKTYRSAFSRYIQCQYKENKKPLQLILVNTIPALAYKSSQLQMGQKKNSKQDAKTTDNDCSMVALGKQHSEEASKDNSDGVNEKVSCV
From the text: (§3) Affinity (Ki, nM) for compound I to human serotonin receptors calculated from the Cheng-Prusoff equation

[4] = target: T4, 5-HT2C receptor (Homo sapiens, UniProt P28335); assay: affinity to human serotonin receptor 5-HT2C; format: binding; conditions: calculated from the Cheng-Prusoff equation
T4 sequence (P28335 33-458): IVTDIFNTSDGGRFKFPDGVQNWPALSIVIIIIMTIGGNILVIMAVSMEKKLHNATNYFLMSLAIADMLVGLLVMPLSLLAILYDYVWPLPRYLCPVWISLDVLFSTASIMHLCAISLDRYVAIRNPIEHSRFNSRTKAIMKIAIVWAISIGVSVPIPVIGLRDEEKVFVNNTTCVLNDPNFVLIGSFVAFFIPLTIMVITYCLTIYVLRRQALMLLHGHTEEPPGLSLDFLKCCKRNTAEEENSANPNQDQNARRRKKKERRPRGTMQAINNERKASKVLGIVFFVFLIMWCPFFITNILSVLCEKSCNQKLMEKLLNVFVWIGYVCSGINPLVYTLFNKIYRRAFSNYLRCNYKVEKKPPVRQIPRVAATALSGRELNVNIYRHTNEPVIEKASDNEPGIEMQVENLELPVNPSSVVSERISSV
From the text: as §3

[5] = target: T3, 5-HT2A receptor; assay: functional FLIPR assay, 5-HT2A antagonism; format: cell-based; conditions: read-out: Kb, antagonist of the 5-HT2A receptor
[6] = target: T4, 5-HT2C receptor; assay: functional assay, 5-HT2C antagonism; format: cell-based; conditions: read-out: Kb, antagonist of the 5-HT2C receptor
[7] = tested on: mice, formalin-injected hind paw; assay: formalin model of neuropathic pain; format: in vivo; conditions: for time spent licking the injured paw, 0-5 minutes: first phase, vehicle 51; for time spent licking the injured paw, 20-30 minutes: second phase, vehicle 66
Protocol: There are several well validated animal models of neuropathic pain available for assess of antinociceptive potential of drugs. Among the most frequently used model are chronic constriction injury models (for example Bennett and Xie, Pain, 1988) and the capsaicin (Gilchrist et al., Pain 1996) and formalin [Neuropharm., 48, 252-263, 2005; Pain, 51, 5-17, 1992] models. […] In this model, mice receive an injection of formalin (4.5%, 20 μl) into the plantar surface of the left hind paw and are afterwards placed into individual glass beakers (2 l capacity) for observation. The irritation caused by the formalin injection elicits a characteristic biphasic behavioural response, as quantified by the amount of time spent licking the injured paw. The first phase (˜0-10 minutes) represents direct chemical irritation and nociception, whereas the second (˜20-30 minutes) is thought to represent pain of neuropathic origin. The two phases are separated by a quiescent period in which behaviour returns to normal. Measuring the amount of time spent licking the injured paw in the two phases assesses the effectiveness of test compounds to reduce the neuropathic-like pain response.

T1 sequence (P31652 whole entry): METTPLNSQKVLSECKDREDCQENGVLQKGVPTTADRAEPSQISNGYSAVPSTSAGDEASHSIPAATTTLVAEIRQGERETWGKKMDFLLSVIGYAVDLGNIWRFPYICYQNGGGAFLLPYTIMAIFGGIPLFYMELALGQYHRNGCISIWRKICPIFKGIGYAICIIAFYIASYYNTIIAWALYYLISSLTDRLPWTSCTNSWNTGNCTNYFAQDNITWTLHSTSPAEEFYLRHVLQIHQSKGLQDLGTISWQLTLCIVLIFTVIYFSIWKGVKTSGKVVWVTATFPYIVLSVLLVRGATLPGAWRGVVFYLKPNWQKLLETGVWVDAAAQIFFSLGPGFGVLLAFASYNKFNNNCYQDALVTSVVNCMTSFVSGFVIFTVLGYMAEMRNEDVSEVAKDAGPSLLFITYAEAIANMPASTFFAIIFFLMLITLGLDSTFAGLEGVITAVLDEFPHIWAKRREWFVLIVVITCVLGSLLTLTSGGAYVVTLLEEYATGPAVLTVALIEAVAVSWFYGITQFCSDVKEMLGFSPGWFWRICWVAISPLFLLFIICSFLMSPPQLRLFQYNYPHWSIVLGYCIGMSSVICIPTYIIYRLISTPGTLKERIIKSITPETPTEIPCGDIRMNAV

Q: Which results are given for Cc1ccc(Sc2ccc(F)c(F)c2C2CCNCC2)c(F)c1 [compound I, 4-[2,3-difluoro-6-(2-fluoro-4-methyl-phenylsulfanyl)-phenyl]-piperidine]?
A: pIC50 [1]: 8.62; pIC50 [2]: 7.92; pKi [3]: 7.89; pKi [4]: 8.31; Kb [5]: ~130 nM; Kb [6]: ~35 nM; time spent licking the injured paw, 0-5 minutes ([7]; 0.25 mg/kg s.c): 40 s; time spent licking the injured paw, 20-30 minutes ([7]; 0.25 mg/kg s.c): 48 s; time spent licking the injured paw, 0-5 minutes ([7]; 1 mg/kg s.c): 40 s; time spent licking the injured paw, 20-30 minutes ([7]; 1 mg/kg s.c): 21 s; time spent licking the injured paw, 0-5 minutes ([7]; 2.5 mg/kg s.c): 31 s; time spent licking the injured paw, 20-30 minutes ([7]; 2.5 mg/kg s.c): 7 s; effect in the first phase (direct chemical irritation and nociception) ([7]; 0.25-2.5 mg/kg s.c, in words): little effect; effect on time spent licking the injured paw in the second phase (neuropathic pain) ([7]; 0.25-2.5 mg/kg s.c, in words): clear and dose-dependent decrease
